Experimental data as given in ChEMBL document CHEMBL3046274, “Toxicity of imidacloprid to developmental stages of Rhynchophorus ferrugineus (Curculionidae: Coleoptera): Laboratory and field tests” (Crop Prot, 2006).
Active and inactive are the calls of the source. The rule behind the calls is not given here.

Tests used:
[1] = system: Rhynchophorus ferrugineus; test: Pesticidal activity against Rhynchophorus ferrugineus (red palm weevil) cocoon assessed as mortality at 0.5 ppm administered by dipping for 3 min measured at 48 hr post-treatment relative to control; format: functional
[2] = system: Rhynchophorus ferrugineus; test: Contact toxicity against Rhynchophorus ferrugineus (red palm weevil) adults assessed as time required for 50% mortality at 3.5 ml/l for 5 min; format: functional
[3] = system: Rhynchophorus ferrugineus; test: Pesticidal activity against Rhynchophorus ferrugineus (red palm weevil) larvae assessed as mortality at 0.5 ppm, po at 72 hr post-treatment relative to control; format: functional
[4] = system: Rhynchophorus ferrugineus; test: Pesticidal activity against Rhynchophorus ferrugineus (red palm weevil) cocoons assessed as time required for total mortality at 1.5 ml/l administered by dipping for 5 secs; format: functional
[5] = system: Rhynchophorus ferrugineus; test: Pesticidal activity against Rhynchophorus ferrugineus (red palm weevil) cocoons assessed as time required for total mortality at 2.5 ml/l administered by dipping for 5 secs; format: functional
[6] = system: Rhynchophorus ferrugineus; test: Pesticidal activity against adult Rhynchophorus ferrugineus (red palm weevil) assessed as mortality at 1.5 ppm, po at 24 hr post-treatment relative to control; format: functional
[7] = system: Rhynchophorus ferrugineus; test: Pesticidal activity against adult Rhynchophorus ferrugineus (red palm weevil) assessed as mortality at 0.5 ppm, po at 114 hr post-treatment relative to control; format: functional
[8] = system: Rhynchophorus ferrugineus; test: Pesticidal activity against Rhynchophorus ferrugineus (red palm weevil) cocoon assessed as mortality of emerged adult at low concentration administered by dipping for 3 min measured up to 1 week after emergence; format: functional, organism-based
[9] = system: Rhynchophorus ferrugineus; test: Pesticidal activity against adult Rhynchophorus ferrugineus (red palm weevil) assessed as mortality at 300 ppm administered topically at 48 hr post-treatment; format: functional
[10] = system: Rhynchophorus ferrugineus; test: Pesticidal activity against adult Rhynchophorus ferrugineus (red palm weevil) assessed as time required for 100% mortality at 2.5 ml/l administered topically; format: functional
[11] = system: Rhynchophorus ferrugineus; test: Pesticidal activity against Rhynchophorus ferrugineus (red palm weevil) larvae assessed as mortality at 6 ppm, po at 18 hr post-treatment relative to control; format: functional
[12] = system: Rhynchophorus ferrugineus; test: Pesticidal activity against Rhynchophorus ferrugineus (red palm weevil) cocoon assessed as mortality at 2 ppm administered by dipping for 3 min measured at 24 hr post-treatment relative to control; format: functional
[13] = system: Rhynchophorus ferrugineus; test: Pesticidal activity against Rhynchophorus ferrugineus (red palm weevil) larvae assessed as mortality at 2 ppm, po at 24 hr post-treatment relative to control; format: functional
[14] = system: Rhynchophorus ferrugineus; test: Pesticidal activity against Rhynchophorus ferrugineus (red palm weevil) larvae assessed as mortality at 1 ppm, po at 18 hr post-treatment relative to control; format: functional
[15] = system: Rhynchophorus ferrugineus; test: Pesticidal activity against Rhynchophorus ferrugineus (red palm weevil) larvae assessed as mortality at 100 ppm administered topically at 18 hr post-treatment; format: functional
[16] = system: Rhynchophorus ferrugineus; test: Pesticidal activity against Rhynchophorus ferrugineus (red palm weevil) cocoon assessed as mortality at 1 ppm administered by dipping for 3 min measured at 24 hr post-treatment relative to control; format: functional
[17] = system: Rhynchophorus ferrugineus; test: Contact toxicity against Rhynchophorus ferrugineus (red palm weevil) adults assessed as time required for 100% reversible knockdown at 2.5 ml/l for 5 min; format: functional
[18] = system: Rhynchophorus ferrugineus; test: Pesticidal activity against Rhynchophorus ferrugineus (red palm weevil) cocoons assessed as time required for total mortality at 2.5 ml/l administered by dipping for 10 secs; format: functional

For `O=[N+]([O-])/N=C1\NCCN1Cc1ccc(Cl)nc1` [IMIDACLOPRID], the Activity [1] was 0%, the Time [2] was 2.2 days and the Activity [3] was 38.9%. It also gave a Time [4] of 14.5 days, a Time [5] of 9.5 days and an Activity [6] of 72.2%. The Activity [7] was 72.2%, the Activity [8] was “inactive” and the Activity [9] was 72.2%. The Time [10] was 8.8 days, the Activity [11] was 100% and the Activity [12] was 0%. For the same compound, the Activity [13] was 100%, the Activity [14] was 0% and the Activity [15] was 0%. It also gave an Activity [16] of 0%, a Time [17] of 2.2 days and a Time [18] of 9.6 days.
